Experimental data published in publication PMC7939391, “[4Fe-4S] cluster trafficking mediated by Arabidopsis mitochondrial ISCA and NFU proteins” (The Journal of Biological Chemistry, 2021).

Biological target: T1, ACO2 (Arabidopsis thaliana, UniProt Q94A28)
T1 construct: untagged recombinant from pET15b (NcoI-XhoI), E. coli BL21(DE3); forward primer encodes start MASEHSY (transit peptide removed)
T1 sequence (Q94A28 98-995): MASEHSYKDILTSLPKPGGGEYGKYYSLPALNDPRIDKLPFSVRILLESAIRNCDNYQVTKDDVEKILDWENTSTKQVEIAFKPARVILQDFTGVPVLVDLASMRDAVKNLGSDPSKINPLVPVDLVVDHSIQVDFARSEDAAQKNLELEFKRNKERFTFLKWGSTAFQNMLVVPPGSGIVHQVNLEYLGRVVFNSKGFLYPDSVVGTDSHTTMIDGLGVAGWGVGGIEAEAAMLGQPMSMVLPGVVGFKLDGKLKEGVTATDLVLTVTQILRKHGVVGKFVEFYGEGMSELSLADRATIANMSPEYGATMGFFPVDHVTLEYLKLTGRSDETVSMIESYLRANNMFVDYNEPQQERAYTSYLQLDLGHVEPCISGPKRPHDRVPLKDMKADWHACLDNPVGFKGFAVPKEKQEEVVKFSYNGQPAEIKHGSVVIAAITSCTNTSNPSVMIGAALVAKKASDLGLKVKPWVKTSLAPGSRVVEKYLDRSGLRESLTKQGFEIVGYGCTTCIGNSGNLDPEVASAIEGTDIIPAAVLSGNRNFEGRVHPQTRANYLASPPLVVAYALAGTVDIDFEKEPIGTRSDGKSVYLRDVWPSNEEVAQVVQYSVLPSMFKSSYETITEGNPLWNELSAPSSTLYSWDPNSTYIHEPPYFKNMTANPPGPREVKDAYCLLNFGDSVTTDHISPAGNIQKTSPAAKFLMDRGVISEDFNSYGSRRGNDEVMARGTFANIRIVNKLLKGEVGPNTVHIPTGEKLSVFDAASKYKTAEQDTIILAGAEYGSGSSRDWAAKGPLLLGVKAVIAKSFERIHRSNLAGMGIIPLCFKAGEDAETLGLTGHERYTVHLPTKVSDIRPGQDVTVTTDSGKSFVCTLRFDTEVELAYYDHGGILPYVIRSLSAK
Experiment: absorbance at […] nm
Format: biochemical
Conditions: from citrate or isocitrate; [4Fe-4S]-loaded enzyme

SMILES: O=C(O)/C=C(/CC(=O)O)C(=O)O [cis-aconitate]
- absorbance at 240 nm: following the formation of cis-aconitate from citrate or isocitrate
